The values that follow come from US8003691B2, “Antiviral and comma antibacterial pharmaceutical compositions of cantharidic anhydride and method of preparation thereof” (priority 2001, dated 2011).

Series [1] relates to tubercule bacillus. Format: cell-based.
Series [2] is described as follows: Solubility of cantharidic anhydride in water, fat and essential oil. The series is classed as physicochemical. The protocol: In the pharmaceutical composition of the present invention, cantharidic anhydride is dissolved in essential oils or single constituent of essential oils to form cantharidic anhydride-essential oil preparation. The cantharidic anhydride has higher solubility in essential oil. […] That is to say, concentration of cantharidic anhydride in essential oil can be 14 times larger than that in fat and more than 200 time larger than that in water.

The subject of a further series is staphylococcus. The series is classed as cell-based.
For series [3] the following is noted: human, in vivo.
The next series concerns virus. The experiment in a line: Minimum concentration for virus deactivation. The series is classed as cell-based.
For series [4], the system named is tubercule bacillus. The note with it: reported in literature; cited from earlier work.

SMILES strings stand for the structures.

Take `C[C@@]12C(=O)OC(=O)[C@]1(C)[C@H]1CC[C@@H]2O1` [cantharidic anhydride, Cantharidic anhydride]: in the series on tubercule bacillus [1], the “concentration in culture medium that can completely deactivate tubercule bacillus” value came to 0.01 ppm. The “concentration of cantharidic anhydride in essential oil relative to that in fat” value in series [2] (essential oil vs fat) was determined as 14 times. Moreover, in series [2] (essential oil vs water), the “concentration of cantharidic anhydride in essential oil relative to that in water” value is recorded as “more than 200 time”. Further, the “solubility in essential oil” value in series [2] (in essential oil) is ≤ 0.7%. In series [2] (in fat), the solubility in fat is 0.05%. Also, in series [2] (in water), the “solubility of cantharidic anhydride in water” value is “approximately 0.003%”. Besides, the “concentration in culture medium that can completely deactivate staphylococcus” value with staphylococcus worked out at 0.01 ppm. The “adverse reaction to liver and bone marrow” value in series [3] was “does not have adverse reaction to liver and bone marrow”. Also, in the series on virus, the “minimum concentration for virus deactivation” value came out at 0.000132 ppm.

As to `[H]/N=C(/N)N[C@H]1[C@H](O)[C@@H](O)[C@H](O[C@@H]2O[C@@H](C)[C@](O)(C=O)[C@H]2O[C@@H]2O[C@@H](CO)[C@H](O)[C@@H](O)[C@@H]2NC)[C@@H](N/C(N)=N\[H])[C@@H]1O` [streptomycin], in the series on tubercule bacillus [4], the “minimum concentration for tubercule bacillus deactivation” value is 10 ppm.
